Source: patent US7214386B2, “Method for the treatment and prevention of overweight in mammals” (priority 2002, dated 2007)

Experiments:
[1] = Plasma glucose in rats (oxidase-peroxidase method); settings: rats on high fat diet, after 2½ weeks of treatment versus after 1 week on the high fat diet
[2] = Plasma insulin in rats (radioimmunoassay); settings: rats on high fat diet, after 2½ weeks of treatment versus after 1 week on the high fat diet
3T3-L1 cells = test: Effect of dill extract on isoprenaline-stimulated lipolysis (glycerol formation) in differentiated 3T3-L1 cells; assay type: cell-based; settings: 24 hours incubation, glycerol formation of sample A divided by that of sample B (isoprenaline alone)
Protocol: 3T3-L1 cells were grown in T75 flasks. The cells were detached by trypsin incubation (±5 min at 37° C.). After detachment, 4 ml lipolysis standard medium was added to the flask (DMEM; 10% fetal calf serum; 4.5 g/l D-glucose; 100 U/ml penicillin; 100 μg/ml streptomycin) and the cells were suspended therein. The cell suspension was then diluted in lipolysis standard medium to 50000 cells/ml (5000 cells/100 μl), and 100 μl of this diluted cell mix was transferred to a precoated well in a 96 wells plate. […] Thereafter the solution was removed). After incubation for 48 hours at 37° C., the medium was refreshed (removal of old medium and addition of 100 μl lipolysis standard medium) and the cells incubated at 37° C. After 72 hours, the supernatant was removed and 100 μl differentiation medium (5 μg/ml bovine insuline; 0.25 μM dexamethasone; 0.5 mM IBMX; in standard medium) was added. […] After 24 hours incubation at 37° C., the glycerol concentration in the supernatant was determined using a glycerol assay (Sigma Cat.no. 337) against a standard curve of glycerol in lipolysis standard medium. The relative lipolysis inhibiting activity of the dill extract was calculated by dividing the glycerol formation of sample A of interest by the glycerol formation of sample B.

Compound | plasma glucose levels (FIG. 3) [1] | plasma insulin levels (FIG. 3) [2] | Relative lipolysis inhibiting effect (3T3-L1 cells)
Cn1c(=O)c2c(ncn2C)n(C)c1=O [caffeine] | significant reduction | no reduction | 
CC(C)NCC(O)c1ccc(O)c(O)c1 (stereo not drawn) [isoprenaline] |  |  | 1
